Test in all cases: NCI anticancer screen, dose series, 48 h
The subject of experiment [1] is RPMI-8226 leukemia.
Experiment [2] has as its system EKVX NSCLC.
For experiment [3], the system named is SK-MEL-2 melanoma.
The subject of experiment [4] is NCI-H23 lung.
Experiment [5] relates to DU-145 prostate.
Experiment [6] relates to OVCAR-5 ovarian.
Experiment [7] relates to HCC-2998 colon.
Experiment [8] deals with NCI/ADR-RES ovarian.
Experiment [9] relates to SF-268 CNS.
In experiment [10] the test system is HS 578T breast.
Experiment [11] has as its system LOX IMVI melanoma.

SMILES strings stand for the structures.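 Step 1: Grow cells in 96-well plates. Step 2: Expose to compound for 48 hours at 5 concentrations. Step 3: Interpolate endpoints linearly; if unreached, use highest concentration. GI50: concentration for 50% inhibition of growth. TGI marks complete inhibition of growth.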

As to `Nn1c(CNc2ccc(-c3nnc(Nc4ccc(Cl)cc4)n3N)cc2)nnc1Nc1ccc(Cl)cc1`, the TGI in experiment [1], in [2], in experiment [3], in [4], in experiment [5] and in experiment [6] was > 100 µM each time. The TGI in [7], in experiment [8] and in [9] was > 100 µM in each case.

For `O=C1/C(=C/c2ccc(O)cc2)NC(=S)N1CN1CCCCC1`, the TGI in experiment [1], in experiment [2], in experiment [3], in experiment [10], in experiment [11] and in [4] was > 100 µM each time. The TGI in experiment [5], in experiment [6], in experiment [8] and in experiment [9] was > 100 µM each time.

Consider `O=C(N=Nc1ccc([N+](=O)[O-])cc1)NNc1ccc([N+](=O)[O-])cc1`, for which the TGI in experiment [1] was found to be 58.2 µM; in [3] it was 28.9 µM; in [11] it was 24.4 µM; in experiment [4], 44.7 µM; in experiment [5], 18.4 µM; in experiment [6] it was 48 µM. Moreover, the TGI in experiment [7] is 27.3 µM; in experiment [9], 80.1 µM.

As to `Clc1cc2nc(C3CCCO3)[nH]c2cc1Cl` (stereo not drawn), the TGI in experiment [1], in experiment [2], in [3], in experiment [10], in experiment [11] and in experiment [4] was > 100 µM in each case. Besides, the TGI in experiment [6], in experiment [7], in [8] and in experiment [9] was > 100 µM in each case.

For the compound `C=CCn1c2ccccc2c2c(C)c3cnccc3c(C)c21`, the TGI was 29.5 µM in experiment [1]; 66.1 µM in experiment [2]; > 71 µM in experiment [3]; 60 µM in experiment [11]; 45.3 µM in experiment [4]; 69.9 µM in experiment [6]. The figures for the TGI in experiment [7], in experiment [8] and in experiment [9] were 104 µM, 34.4 µM and 88.7 µM, respectively.

`COC1/C=C\C=C(/C)C(=O)NC2=CC(=O)C=C(C2=O)C(OC)C(C)CC(OC)C(OC)C(C)/C=C(/C)C1OC(N)=O` (stereo not drawn): the TGI in experiment [1] was determined as 12.1 µM; in experiment [2], 20.9 µM; in experiment [3] it was 20.5 µM; in experiment [11] it was 13.8 µM; in experiment [4], 16 µM; in [6], 28.8 µM. Besides, the TGI turned out to be 15.9 µM in experiment [7], 21.8 µM in [8] and 26.6 µM in [9].

As for `C#CCNC(=O)CCC(N)C(=O)O` (stereo not drawn), the TGI in [1], in experiment [2], in experiment [3], in [11], in experiment [4] and in experiment [6] was > 100 µM in each case. In addition, the TGI in experiment [7], in experiment [8] and in experiment [9] was > 100 µM throughout.

Turning to `CCCS(=O)(=O)O`, the TGI in experiment [1], in experiment [2], in experiment [3], in [10], in experiment [11] and in experiment [4] was > 100 µM throughout. In addition, the TGI in [5], in [6], in experiment [8] and in experiment [9] was > 100 µM in each case.

As for `O=C(Nc1ccc(Cl)cc1)c1cc(S(=O)(=O)Nc2n[nH]c(=O)[nH]2)c(SSc2cc(Cl)c(C(=O)Nc3ccc(Cl)cc3)cc2S(=O)(=O)Nc2n[nH]c(=O)[nH]2)cc1Cl`, the TGI in experiment [1], in experiment [2], in experiment [3], in [10], in experiment [11] and in [4] was > 100 µM in each case. Besides, the TGI in [6], in experiment [7], in experiment [8] and in experiment [9] was > 100 µM each time.

On to `CSc1ccc2c(c1)c(CCN)c(C)n2Cc1ccc(Cl)c(Cl)c1`, for which the GI50 in [1] was 2.14 µM; in [3], 1.74 µM; in [10], 2.05 µM; in experiment [4] it was 1.73 µM; in experiment [5], 1.73 µM; in [6], 1.51 µM. For the same compound, the TGI in experiment [1] came to 4.66 µM; in experiment [3], 3.34 µM; in [10], 4.8 µM; in experiment [4] it was 3.3 µM; in [5], 3.21 µM; in [6], 3.13 µM.

In the case of `O=c1oc2ncccc2n1Cc1ccc([N+](=O)[O-])cc1`, the TGI in experiment [1], in experiment [2], in experiment [3], in experiment [10], in experiment [11] and in [4] was > 100 µM throughout. For the same compound, the TGI in experiment [5], in [6], in experiment [8] and in [9] was > 100 µM throughout.

As to `CN1CCc2c(sc3nc(Nc4ccccc4)n(N)c(=O)c23)C1`, the TGI in experiment [1], in [2], in experiment [3], in experiment [10], in [4] and in [5] was > 100 µM throughout. The TGI in experiment [6], in experiment [8] and in experiment [9] was > 100 µM in each case.

As for `COC1/C=C/C(C)C(OC)CC(O)/C=C/C(C)C(C(C)C(OC)C(C)CCC(=O)C(C)C(C/C=C/N(C)C=O)OC)OC(=O)/C=C/C=C(\C)CC(OC)C(OC)C2=CC(=O)O[C@@H](C(C)C(OC)C1)[C@H]2O` (stereo partly drawn), the TGI came to 3.24 µM in experiment [1]; 0.28 µM in experiment [2]; 0.093 µM in experiment [10]; 0.025 µM in experiment [11]; 0.151 µM in experiment [4]; 0.118 µM in [6]. For the same compound, the TGI stood at 0.0518 µM in experiment [7], 0.145 µM in experiment [8] and 0.129 µM in [9].

For the compound `CC(=O)OCC1C(C(C)OC(C)=O)CCC2C1CCC1(C)C(OC(C)=O)CCC21` (stereo not drawn), the TGI in experiment [1] was 69.9 µM; in experiment [2], 32.9 µM; in experiment [11], 27.9 µM; in experiment [4], 76.1 µM; in experiment [5], > 100 µM; in experiment [6], > 100 µM. The TGI in experiment [7] was determined as 33.5 µM; in [8], 44.9 µM; in experiment [9] it was 52.5 µM.

For the compound `CC1=C(C)C(=O)OC(C(C)(O)C2(O)CCC3(O)C4CC(Cl)C5(O)C(O)C=CC(=O)C5(C)C4CCC32C)C1` (stereo not drawn), the TGI in experiment [1] is 47.3 µM; in experiment [2], > 100 µM; in experiment [3], > 100 µM; in experiment [10], > 100 µM; in experiment [11], 46.4 µM; in [4], > 100 µM. The TGI in experiment [5], in [6], in experiment [7] and in experiment [9] was > 100 µM throughout.

Regarding `CCN(CC)CCN1C(=O)c2cccc3c(-c4ccc5c(c4)ncn5C4CCCCC4)ccc(c23)C1=O`, the GI50 in experiment [1] was 1.17 µM; in experiment [2], 1.32 µM; in experiment [5], 1.59 µM; in [6] it was 1.72 µM; in experiment [8] it was 1.45 µM. Besides, the TGI in experiment [1] stood at 3.53 µM; in [2], 3.18 µM; in [5], 3.2 µM; in [6], 4.04 µM; in experiment [8], 4.26 µM.

For `Cc1ccc2nc3c(C(=O)NCCN(C)C)cccc3cc2c1`, the TGI stood at 7.12 µM in [1]; 2.78 µM in experiment [2]; 5.3 µM in experiment [3]; 6.4 µM in experiment [11]; 4.21 µM in [4]; 5.64 µM in [6]. Also, the TGI in [7] was found to be 14.8 µM; in experiment [8] it was 4.25 µM; in experiment [9], 2.52 µM.

With `COCCO`, the TGI in experiment [1], in experiment [2], in [3], in experiment [11], in [4] and in [6] was > 100 µM each time. Further, the TGI in experiment [7], in experiment [8] and in experiment [9] was > 100 µM throughout.

Turning to `N#CC12COC3(CCCCC3C1(C#N)C#N)OC2=N` (stereo not drawn), the TGI in [2] is 48.8 µM; in experiment [3], 25.3 µM; in experiment [10], 44.7 µM; in experiment [11], 30.3 µM; in [4], 37.2 µM; in experiment [5], 28.7 µM. Further, the values for the TGI in experiment [6], in [8] and in [9] were 30.4 µM, > 100 µM and 25.3 µM, respectively.

With `COc1ccc(/C=C2/C(=O)N(C(=O)c3ccccc3O)N=C2C)cc1OC`, the TGI was > 100 µM in experiment [1]; > 100 µM in experiment [2]; > 30.9 µM in experiment [3]; > 54.2 µM in [11]; > 100 µM in experiment [5]; > 100 µM in experiment [6]. Besides, the TGI in experiment [7], in experiment [8] and in experiment [9] was > 100 µM each time.

As for `CCCCCCc1nn2c(-c3ccc(C)cc3)nnc2s1`, the TGI in experiment [1], in experiment [2], in experiment [3], in experiment [10], in experiment [4] and in experiment [5] was > 100 µM in each case. In addition, the TGI in experiment [6], in experiment [8] and in [9] was > 100 µM in each case.

The values are drawn from PubChem BioAssay (NCI).
